According to patent publication US6576668B1, “Remedies for arthrosis deformans” (Santen Pharmaceutical Co., Ltd., priority 1999, dated 2003):

Assays:
[1] = tested on: MMP-3 production of chondrocytes; test: MMP-3 production of IL-1β-treated chondrocytes (MMP-3 activity in culture supernatant); type: cell-based; settings: Oryctolagus cuniculus, Chondrocyte, 48 h, rabbit chondrocytes, IL-1β 1 ng/ml, two days culture, average of three samples, read-out: Production inhibition rate (%) (MMP-3)
Text: In order to study utility of the present compound, actions of the present compound on MMP-3 production and degradation of proteoglycan after IL-1β treatment were studied by using chondrocytes separated from femurs of rabbit knee joints according to the report of Nose et al. (J. Rheumatology, 24, 550-554 (1997)). The action on MMP-3 production was studied by measuring MMP-3 activity. The action on degradation of proteoglycan was studied by measuring glycosaminoglycan (GAG) being a degradation product of proteoglycan. Femurs of knee joints of male Japanese white rabbits were enucleated. Surface cartilage of the femur was sliced into small pieces, and then tissues were dissociated by enzyme treatment to prepare chondrocytes. A mammal cell culture basal medium D-MEM (Dulbecco's Modified Eagle Medium, produced by Gibco Co., Ltd.) containing β-ketoglutaric acid (5 μg/ml), L-ascorbic acid (50 μg/ml), lactoalbumin hydrolyzate (0.2 mg/ml), penicillin (100 U/ml) and streptomycin (100 μg/ml) (hereinafter referred to as “medium A”) was prepared. […] A culture supernatant was collected, and MMP-3 activity in the supernatant was measured with MMP-3 assay Kit (produced by Yagai Co., Ltd.). […]

[2] = tested on: degradation of proteoglycan in chondrocytes; test: Degradation of proteoglycan in IL-1β-treated chondrocytes (GAG concentration in supernatant); type: cell-based; settings: Oryctolagus cuniculus, Chondrocyte, 48 h, rabbit chondrocytes, IL-1β 1 ng/ml, two days culture, average of three samples, read-out: Degradation inhibition rate (%) (proteoglycan)
Text: In order to study utility of the present compound, actions of the present compound on MMP-3 production and degradation of proteoglycan after IL-1β treatment were studied by using chondrocytes separated from femurs of rabbit knee joints according to the report of Nose et al. (J. Rheumatology, 24, 550-554 (1997)). The action on MMP-3 production was studied by measuring MMP-3 activity. The action on degradation of proteoglycan was studied by measuring glycosaminoglycan (GAG) being a degradation product of proteoglycan. Femurs of knee joints of male Japanese white rabbits were enucleated. Surface cartilage of the femur was sliced into small pieces, and then tissues were dissociated by enzyme treatment to prepare chondrocytes. A mammal cell culture basal medium D-MEM (Dulbecco's Modified Eagle Medium, produced by Gibco Co., Ltd.) containing β-ketoglutaric acid (5 μg/ml), L-ascorbic acid (50 μg/ml), lactoalbumin hydrolyzate (0.2 mg/ml), penicillin (100 U/ml) and streptomycin (100 μg/ml) (hereinafter referred to as “medium A”) was prepared. […] A GAG concentration in the supernatant was measured according to the method of Farndale et al. (Biochim. Biophys. Acta, 883, 173-177 (1986)). […]

[3] = tested on: mobility of knee joint, rabbit-immobilized models; test: Improvement effect on mobility of knee joint in rabbit-immobilized models; type: in vivo, NZW rabbits; settings: for Mobility of knee joint (degree): measured on 29th day, control 42, average of ten samples
Text: In order to study in vivo effects of the present compound on osteoarthritis, an improvement effect on a mobility of a knee joint was investigated by using rabbit-immobilized models. A test compound was suspended in a 1% aqueous methyl cellulose solution to prepare test compound solutions having desired concentrations. Knee joints of right hind paws of NZW rabbits (13 weeks old, body weight: 2.97 to 3.27 kg) were fixed in an extended position with plaster bandages under sodium pentobarbital (25 mg/kg) anesthesia. Administering orally the test compound (amount of liquid to be administered: 10 ml/kg) to the rabbits for four weeks, the rabbits were sacrificed by exsanguination on the 29th day, and then mobilities of the knee joints were measured. A similar experiment was carried out by using a 1% aqueous methyl cellulose solution (10 ml/kg) as a control instead of the test compound. The mobility of the knee joint was determined from a difference between a maximum flection angle obtained when a paw joint of the rabbit was vertically loaded with a load of 400 g and a maximum extension angle.

## CC(C)(S)C(=O)N[C@@H](CS)C(=O)O [Bucillamine, bucillamine]
[1]
  inhibition at 3 µM: 28%
[2]
  inhibition at 3 µM: 19%
[3]; 10 mg/kg orally for four weeks
  Mobility of knee joint (degree): 46 degree
[3]; 30 mg/kg orally for four weeks
  Mobility of knee joint (degree): 48 degree
[3]; 100 mg/kg orally for four weeks
  Mobility of knee joint (degree): 53 degree
[3]; 10 to 100 mg/kg orally for four weeks
  Effect on mobility of the rabbit knee joint (in words): improves the mobility of the rabbit knee joint dose-dependently
